Results as given in ChEMBL document CHEMBL1141017, “Triterpene based compounds with potent anti-maturation activity against HIV-1” (Bioorg Med Chem Lett, 2008).
Active and inactive are the calls of the source. The rule behind the calls is not given here.

Experiments:
[1] = system: Human immunodeficiency virus 1; assay: Antiviral activity against HIV1 3B replication in human PBMC assessed as reverse transcriptase activity after 7 days; type: functional, organism-based; conditions: for IC50: Human immunodeficiency virus 1, 3B, 168 h
PBMC = assay: (§1) Cytotoxicity against human PBMC by cell viability assay; type: cell-based
[2] = Cytotoxicity against human MT4 cells after 4 days by cell viability assay; type: cell-based; conditions: read-out: TC50
[3] = system: Human immunodeficiency virus 1; assay: Antiviral activity against HIV1 NL4-3 infected in human MT4 cells assessed as cytoprotection against virus-induced cytopathic effect after 4 days by cell viability assay; type: functional, organism-based; conditions: Human immunodeficiency virus 1, NL4-3, MT4, 96 h
[4] = Therapeutic index, ratio of TC50 for human MT4 cells to EC50 for HIV1 NL43; type: cell-based
[5] = Therapeutic index, ratio of TC50 for human MT4 cells to IC50 for HIV1 3B; type: cell-based
[6] = Metabolic stability in human liver microsomes assessed as compound remaining after 40 mins; type: ADME, Microsome; conditions: read-out: Stability
[7] = Metabolic stability in Sprague-Dawley rat liver microsomes assessed as compound remaining after 40 mins; type: ADME, Microsome; conditions: read-out: Stability
[8] = Tmax in Sprague-Dawley rat at 5 mg/kg, po; type: ADME, organism-based; design: dose 5 mg/kg, route oral; conditions: in vivo
[9] = as §1; type: cell-based; conditions: read-out: TC50 (the source's name)
[10] = Half life in Sprague-Dawley rat at 5 mg/kg, po; type: ADME, organism-based; design: dose 5 mg/kg, route oral; conditions: in vivo
[11] = Cmax in Sprague-Dawley rat at 5 mg/kg, po; type: ADME, organism-based; design: dose 5 mg/kg, route oral; conditions: in vivo
[12] = AUC (0 to infinity) in Sprague-Dawley rat at 5 mg/kg, po; type: ADME, organism-based; design: time infinity, dose 5 mg/kg, route oral; conditions: plasma
[13] = Oral bioavailability in Sprague-Dawley rat at 5 mg/kg; type: ADME, organism-based; conditions: in vivo
[14] = Tmax in Sprague-Dawley rat at 7.5 mg/kg, po; type: ADME, organism-based; design: dose 7.5 mg/kg, route oral; conditions: in vivo
[15] = Tmax in Sprague-Dawley rat at 10 mg/kg, po; type: ADME, organism-based; design: dose 10 mg/kg, route oral; conditions: in vivo
[16] = Half life in Sprague-Dawley rat at 7.5 mg/kg, po; type: ADME, organism-based; design: dose 7.5 mg/kg, route oral; conditions: in vivo
[17] = Half life in Sprague-Dawley rat at 10 mg/kg, po; type: ADME, organism-based; design: dose 10 mg/kg, route oral; conditions: in vivo
[18] = Cmax in Sprague-Dawley rat at 7.5 mg/kg, po; type: ADME, organism-based; design: dose 7.5 mg/kg, route oral; conditions: in vivo
[19] = Cmax in Sprague-Dawley rat at 10 mg/kg, po; type: ADME, organism-based; design: dose 10 mg/kg, route oral; conditions: in vivo
[20] = AUC (0 to infinity) in Sprague-Dawley rat at 7.5 mg/kg, po; type: ADME, organism-based; design: time infinity, dose 7.5 mg/kg, route oral; conditions: plasma
[21] = AUC (0 to infinity) in Sprague-Dawley rat at 10 mg/kg, po; type: ADME, organism-based; design: time infinity, dose 10 mg/kg, route oral; conditions: plasma
[22] = Oral bioavailability in Sprague-Dawley rat at 7.5 mg/kg; type: ADME, organism-based; conditions: in vivo
[23] = Oral bioavailability in Sprague-Dawley rat at 10 mg/kg; type: ADME, organism-based; conditions: in vivo

| Structure (SMILES) | CC50 at 96 h [2] | EC50 [3] | selectivity ratio [4] | selectivity ratio [5] | remaining at 40 min [6] | remaining at 40 min [7] | Tmax [8] | IC50 [1] | CC50 [9] | half-life [10] | Cmax [11] | AUC(0-inf) [12] | bioavailability [13] | further results |
| --- | --- | --- | --- | --- | --- | --- | --- | --- | --- | --- | --- | --- | --- | --- |
| C=C(C)[C@@H]1CC[C@]2(C(=O)NCc3cccc(OC(F)(F)F)c3)CC[C@]3(C)[C@H](CC[C@@H]4[C@@]5(C)CC[C@H](OC(=O)CC(C)(C)C(=O)O)C(C)(C)[C@@H]5CC[C@]43C)[C@@H]12 | 5.2 µM | 110 nM | > 400 | > 400 | 10% | 10% | – | – | – | – | – | – | – | Activity [1]: inactive; TC50 (PBMC): Not Active |
| C=C(C)[C@@H]1CC[C@]2(C(=O)NCc3ccc(Cl)cc3)CC[C@]3(C)[C@H](CC[C@@H]4[C@@]5(C)CC[C@H](OC(=O)CC(C)(C)C(=O)O)C(C)(C)[C@@H]5CC[C@]43C)[C@@H]12 | > 10 µM | 17.9 nM | > 400 | > 400 | > 60% | > 60% | 2 h | 27 nM | > 10 µM | 480 min | 270 nM | 1340 ng·h/mL | 3.91% | – |
| C=C(C)[C@@H]1CC[C@]2(C(=O)NCc3ccc(OC(F)(F)F)cc3)CC[C@]3(C)[C@H](CC[C@@H]4[C@@]5(C)CC[C@H](OC(=O)CC(C)(C)C(=O)O)C(C)(C)[C@@H]5CC[C@]43C)[C@@H]12 | 1 µM | 190 nM | > 400 | > 400 | 10% | 10% | – | – | – | – | – | – | – | Activity [1]: inactive; TC50 (PBMC): Not Active |
| C=C(C)[C@@H]1CC[C@]2(C(=O)NCCc3ccc(OC)cc3)CC[C@]3(C)[C@H](CC[C@@H]4[C@@]5(C)CC[C@H](OC(=O)CC(C)(C)C(=O)O)C(C)(C)[C@@H]5CC[C@]43C)[C@@H]12 | > 10 µM | 12 nM | – | – | – | – | 2 h | 60 nM | 1 µM | 288 min | 40 nM | 245 ng·h/mL | 1.84% | – |
| C=C(C)[C@@H]1CC[C@]2(C(=O)NCc3cccc(OC)c3)CC[C@]3(C)[C@H](CC[C@@H]4[C@@]5(C)CC[C@H](OC(=O)CC(C)(C)C(=O)O)C(C)(C)[C@@H]5CC[C@]43C)[C@@H]12 | > 10 µM | 19 nM | > 400 | > 400 | 10% | 10% | – | 14 nM | > 10 µM | – | – | – | – | – |
| C=C(C)[C@@H]1CC[C@]2(C(=O)NCc3ccc(F)cc3C(=O)O)CC[C@]3(C)[C@H](CC[C@@H]4[C@@]5(C)CC[C@H](OC(=O)CC(C)(C)C(=O)O)C(C)(C)[C@@H]5CC[C@]43C)[C@@H]12 | 3.2 µM | 52 nM | > 400 | > 400 | 10% | 10% | – | 4 nM | 1.5 µM | – | – | – | – | – |
| C=C(C)[C@@H]1CC[C@]2(C(=O)NCc3ccccc3OC)CC[C@]3(C)[C@H](CC[C@@H]4[C@@]5(C)CC[C@H](OC(=O)CC(C)(C)C(=O)O)C(C)(C)[C@@H]5CC[C@]43C)[C@@H]12 | > 10 µM | 24 nM | > 400 | > 400 | 10% | 10% | 2 h | 7 nM | > 10 µM | 120 min | 40 nM | 114 ng·h/mL | – | – |
| C=C(C)[C@@H]1CC[C@]2(C(=O)NCc3ccc4c(c3)OCO4)CC[C@]3(C)[C@H](CC[C@@H]4[C@@]5(C)CC[C@H](OC(=O)CC(C)(C)C(=O)O)C(C)(C)[C@@H]5CC[C@]43C)[C@@H]12 | > 10 µM | 23 nM | > 400 | > 400 | 10% | 10% | – | 9 nM | > 10 µM | – | – | – | – | – |
| C=C(C)[C@@H]1CC[C@]2(C(=O)NCc3ccccc3C(=O)O)CC[C@]3(C)[C@H](CC[C@@H]4[C@@]5(C)CC[C@H](OC(=O)CC(C)(C)C(=O)O)C(C)(C)[C@@H]5CC[C@]43C)[C@@H]12 | 4.5 µM | 6 nM | > 400 | > 400 | > 60% | > 60% | 3.2 h | 16 nM | 9.7 µM | 120 min | 580 nM | 1700 ng·h/mL | 56.4% | – |
| C=C(C)[C@@H]1CC[C@]2(C(=O)NCCc3ccccc3C(=O)NCCC(=O)O)CC[C@]3(C)[C@H](CC[C@@H]4[C@@]5(C)CC[C@H](OC(=O)CC(C)(C)C(=O)O)C(C)(C)[C@@H]5CC[C@]43C)[C@@H]12 | 9.6 µM | 3.1 nM | – | – | > 40% | > 40% | – | 9.4 nM | 11 µM | – | – | – | – | Tmax [14]: 1 h; Tmax [15]: 4 h; half-life [16]: 272 min; half-life [17]: 468 min; Cmax [18]: 860 nM; Cmax [19]: 70 nM; AUC(0-inf) [20]: 1650 ng·h/mL; AUC(0-inf) [21]: 1260 ng·h/mL; bioavailability [22]: 15.5%; bioavailability [23]: 1.6% |
